pKi: −log10 of the molar value. Structures can show the parent of a compound that is named as a salt.

The target in one assay is D4 receptor. Description: dopamine D4 receptor binding assay (3H-YM 09151-2). On the set-up: species or system African Green monkey. As to conditions: 0.5 nM 3H-YM 09151-2; COS cells with recombinantly produced D4 receptors; Table 2: rat striatal homogenates. Here is the method: (§1) Assays For D2 And D4 Receptor Binding Activity
(§2) Pellets of COS cells containing recombinantly produced D2 or D4 receptors from African Green monkey are used for the assays. A sample is homogenized in 100 volumes (w/vol) of 0.05 M Tris HCl buffer at 4° C. and pH 7.4 and then centrifuged at 30,000×g and resuspended and rehomogenized. The sample is again centrifuged at 30,000×g and the final tissue sample is frozen until use. The tissue is resuspended 1:20 (wt/vol) in 0.05 M Tris HCl buffer containing 100 mM NaCl.
(§3) Incubations are carried out at […] and contain 0.4 ml of tissue sample, 0.5 nM ^3 H-YM 09151-2(Nemonapride, cis-5-Chloro-2-methoxy-4-(methylamino)-N-(2-methyl-2-(phenylmethyl)-3-pyrrolidinyl)benzamide) and the compound of interest in a total incubation of 1.0 ml. Nonspecific binding is defined as that binding found in the presence of […] spiperone; without further additions, nonspecific binding is less than 20% of total binding. The binding characteristics of representative compounds of this invention for the D2 and D4 receptor subtypes are shown in Table 2 for rat striatal homogenates.

For the next assay, the target named is D2 receptor (Chlorocebus aethiops, UniProt P52702). Description: dopamine D2 receptor binding assay (3H-YM 09151-2). On the set-up: species or system African Green monkey. As to conditions: 0.5 nM 3H-YM 09151-2; COS cells with recombinantly produced D2 receptors; Table 2: rat striatal homogenates. Here is the method: as §1, §2, §3
D2 receptor, sequence (P52702 whole entry): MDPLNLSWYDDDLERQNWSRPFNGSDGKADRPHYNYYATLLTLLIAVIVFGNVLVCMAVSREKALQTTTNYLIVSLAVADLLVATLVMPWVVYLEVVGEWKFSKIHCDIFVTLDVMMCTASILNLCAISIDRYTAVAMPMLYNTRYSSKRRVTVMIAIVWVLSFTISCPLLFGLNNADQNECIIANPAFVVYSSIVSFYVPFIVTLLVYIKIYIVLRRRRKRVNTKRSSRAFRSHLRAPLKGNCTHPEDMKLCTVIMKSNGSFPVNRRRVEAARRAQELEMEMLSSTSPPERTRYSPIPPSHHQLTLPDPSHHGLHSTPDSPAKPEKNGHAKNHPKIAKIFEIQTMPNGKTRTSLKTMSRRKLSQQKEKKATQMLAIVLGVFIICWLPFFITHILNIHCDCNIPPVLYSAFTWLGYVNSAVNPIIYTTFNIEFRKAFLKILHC

Turning to `c1ccc(-c2ncc(CN3CCN(c4ccc5ccccc5n4)CC3)[nH]2)cc1` [Compound 2a, 1-[(2-phenylimidazol-5-yl)methyl]-4-(2-quinolyl)piperazine hydrobromide], the pKi (as a rule, −log10 of the Ki, conventionally taken in molar units) is 8.05 at D4 receptor and 6.11 on D2 receptor.
The matching figures for `c1ccc(-c2ncc(CN3CCN(c4ccc5c(n4)CCCC5)CC3)[nH]2)cc1` [Compound 1a, (1-[(2-phenylimidazol-5-yl)methyl]-4-(2-5,6,7,8-tetrahydroquinolyl)piperazine hydrobromide]: 7.85 and < 6.00.
`c1ccc(-c2ncc(CN3CCN(c4cnc5ccccc5n4)CC3)[nH]2)cc1` [Compound 5, 2-{4-[(2-phenylimidazol-5-yl)methyl]piperazinyl}quinoxaline]: the negative logarithm of the Ki (pKi) at D2 receptor was 5.69.
On the same count and under the same terms, the same measure for `c1ccc(-c2ncc(CN3CCN(c4ncc5ccccc5n4)CC3)[nH]2)cc1` [Compound 4a, 2-{4-[(2-phenylimidazol-5-yl)methyl]piperazinyl}quinazoline]: 5.57.
`Fc1ccccc1-c1ncc(CN2CCN(c3ccc4ccccc4n3)CC2)[nH]1` [Compound 3a, 1-{[2-(2-fluorophenyl)imidazol-5-yl]methyl}-4-(2-quinolyl)piperazine oxalate]: the figures for the pKi on D4 receptor and at D2 receptor were 7.77 and 6.01, respectively.
